{"source": "patent US20250129070A1", "about": "“BIFUNCTIONAL ANDROGEN RECEPTOR COMPOUNDS” (priority 2023, published 2025)", "key": {"[1]": {"system": "VCaP cells", "assay": "VCaP growth inhibition assay", "assay_type": "cell-based", "conditions": "30 pM R1881, 9 days, CTG", "protocol": "VCaP cells (ATCC Cat #CRL-2876) are plated at 1×10^4 cells per well of a white plastic 96-well cluster plate (Thermo Scientific Nunc Cat #165306) in 100 uL phenol red-free DMEM (Gibco Cat #21063-029) media with 5% CSS (Omega Scientific Cat #FB-04). Cluster plates are returned to the incubator (37*C/5% CO2) for 72 hours prior to treatment. Just prior to treatment, 100 μL of phenol red-free DMEM/5% CSS and […] R1881 (Sigma Cat #R0908-10 mg) was added to each well of the cluster plates (Final R1881 concentration=30 pM). Compounds (200×) were added to each well in a volume of 1 uL, with serial dilutions (1:5) from 20 uM to 2 pM (final concentrations in well are 100 nM to 10 fM). Cluster plates are returned to the incubator for 9 days.\nAfter the 9-day treatment period, media was removed from the cluster plates by inversion and 100 uL room temperature CTG reagent (Promega Cat #G7573) is added to each well. The cluster plates are placed on a shaker and incubated at room temperature for 20 minutes. Following this shaking/incubation, cluster plates are read on a luminometer (BMG ClarioStar). IC50 values are obtained by graphing the RLU data vs. compound concentration with nonlinear regression 4-parameter logistic curves (GraphPad Prism)."}, "[2]": {"system": "AR / CBP ternary complex", "assay": "Ternary complex formation assay (sandwich ELISA, AR capture / CBP detection) in VCaP cell lysates", "assay_type": "cell-based", "conditions": "1.5 hours treatment, sandwich ELISA (AR capture, CBP or p300 detection)", "procedure,_shortened": "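Anti-AR (AR 441)-coated plates capture AR from lysates of VCaP cells grown ≥3 days at 50K/well in 5% charcoal-stripped FBS, dosed with bifunctional for 1.5 h and lysed 30 min at 4 °C. Co-captured CBP/p300 is probed with rabbit mAb and HRP anti-rabbit, then QuantaRed fluorescence (570/585) is read at 0, 5 and 15 min.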"}}, "data": [{"smiles": "COc1cc(OC2C(C)(C)C(NC(=O)c3ccc(OC4CC(N5CCC(n6nc(N7CCCc8cc(-c9cnn(C)c9)c(C(F)F)cc87)c7c6CCN(C(C)=O)C7)CC5)C4)cc3)C2(C)C)ccc1C#N", "note": "(stereo not shown) [Compound 375, 4-[3-[4-[5-acetyl-3-[7-(difluoromethyl)-6-(1-methylpyrazol-4-yl)-3,4-dihydro-2H-quinolin-1-yl]-6,7-dihydro-4H-pyrazolo[4,3-c]pyridin-1-yl]-1-piperidyl]cyclobutoxy]-N-[3-(4-cyano-3-methoxy-phenoxy)-2,2,4,4-tetramethyl-cyclobutyl]benzamide]", "values": [{"measurement": "IC50", "setting": "[1]", "result": "0.1 to 1", "unit": "nM"}, {"measurement": "EC50", "setting": "[2]", "result": "< 1", "unit": "nM"}]}, {"smiles": "COc1cc(OC2C(C)(C)C(NC(=O)c3ccc(N4CC(OC5CCC(n6nc(N7CCCc8cc(-c9cnn(C)c9)c(C(F)F)cc87)c7c6CCN(C(C)=O)C7)CC5)C4)cc3)C2(C)C)ccc1C#N", "note": "(stereo not shown) [Compound 342, 4-[3-[4-[5-acetyl-3-[7-(difluoromethyl)-6-(1-methylpyrazol-4-yl)-3,4-dihydro-2H-quinolin-1-yl]-6,7-dihydro-4H-pyrazolo[4,3-c]pyridin-1-yl]cyclohexoxy]azetidin-1-yl]-N-[3-(4-cyano-3-methoxy-phenoxy)-2,2,4,4-tetramethyl-cyclobutyl]benzamide]", "values": [{"measurement": "IC50", "setting": "[1]", "result": "0.1 to 1", "unit": "nM"}, {"measurement": "EC50", "setting": "[2]", "result": "< 1", "unit": "nM"}]}, {"smiles": "CC(=O)N1CCc2c(c(N3CCCc4cc(-c5cnn(C)c5)c(C(F)F)cc43)nn2C2CCN(C3CC(Oc4ncc(C(=O)NC5C(C)(C)C(Oc6ccc(C#N)c(Cl)c6)C5(C)C)cn4)C3)CC2)C1", "note": "(stereo not shown) [Compound 376, 2-[3-[4-[5-acetyl-3-[7-(difluoromethyl)-6-(1-methylpyrazol-4-yl)-3,4-dihydro-2H-quinolin-1-yl]-6,7-dihydro-4H-pyrazolo[4,3-c]pyridin-1-yl]-1-piperidyl]cyclobutoxy]-N-[3-(3-chloro-4-cyano-phenoxy)-2,2,4,4-tetramethyl-cyclobutyl]pyrimidine-5-carboxamide]", "values": [{"measurement": "IC50", "setting": "[1]", "result": "0.1 to 1", "unit": "nM"}, {"measurement": "EC50", "setting": "[2]", "result": "< 1", "unit": "nM"}]}, {"smiles": "CC(=O)N1CCc2c(c(N3CCCc4cc(-c5cnn(C)c5)c(C(F)F)cc43)nn2C2CCC(C3CCC4(CC3)CN(c3ncc(C(=O)NC5C(C)(C)C(Oc6ccc(C#N)c(Cl)c6)C5(C)C)cn3)C4)CC2)C1", "note": "(stereo not shown) [Compound 379, 2-[7-[4-[5-acetyl-3-[7-(difluoromethyl)-6-(1-methylpyrazol-4-yl)-3,4-dihydro-2H-quinolin-1-yl]-6,7-dihydro-4H-pyrazolo[4,3-c]pyridin-1-yl]cyclohexyl]-2-azaspiro[3.5]nonan-2-yl]-N-[3-(3-chloro-4-cyano-phenoxy)-2,2,4,4-tetramethyl-cyclobutyl]pyrimidine-5-carboxamide]", "values": [{"measurement": "IC50", "setting": "[1]", "result": "1 to 100", "unit": "nM"}, {"measurement": "EC50", "setting": "[2]", "result": "1 to 10", "unit": "nM"}]}, {"smiles": "CC(=O)N1CCc2c(c(-c3cccc4cc(-c5ccc(CCC6CCN(c7ncc(C(=O)NC8C(C)(C)C(Oc9ccc(C#N)c(Cl)c9)C8(C)C)cn7)CC6)nc5)ncc34)nn2C)C1", "note": "(stereo not shown) [Compound 231, 2-[4-[2-[5-[8-(5-acetyl-1-methyl-6,7-dihydro-4H-pyrazolo[4,3-c]pyridin-3-yl)-3-isoquinolyl]-2-pyridyl]ethyl]-1-piperidyl]-N-[3-(3-chloro-4-cyano-phenoxy)-2,2,4,4-tetramethyl-cyclobutyl]pyrimidine-5-carboxamide]", "values": [{"measurement": "IC50", "setting": "[1]", "result": "0.1 to 1", "unit": "nM"}, {"measurement": "EC50", "setting": "[2]", "result": "10 to 100", "unit": "nM"}]}, {"smiles": "COc1cc(OC2C(C)(C)C(NC(=O)c3ccc(N4CCC(CCc5ccc(-c6cc7cccc(-c8nn(C9CCOCC9)c9c8CN(C(C)=O)CC9)c7cn6)cn5)CC4)cc3)C2(C)C)ccc1C#N", "note": "(stereo not shown) [Compound 245, 4-[4-[2-[5-[8-(5-acetyl-1-tetrahydropyran-4-yl-6,7-dihydro-4H-pyrazolo[4,3-c]pyridin-3-yl)-3-isoquinolyl]-2-pyridyl]ethyl]-1-piperidyl]-N-[3-(4-cyano-3-methoxy-phenoxy)-2,2,4,4-tetramethyl-cyclobutyl]benzamide]", "values": [{"measurement": "IC50", "setting": "[1]", "result": "0.1 to 1", "unit": "nM"}, {"measurement": "EC50", "setting": "[2]", "result": "< 1", "unit": "nM"}]}, {"smiles": "COc1cc(OC2C(C)(C)C(NC(=O)c3cnc(N4CCC(CN5CCC(n6nc(N7CCCc8cc(-c9cnn(C)c9)c(C(F)F)cc87)c7c6CCN(C(C)=O)C7)CC5)C5(CC5)C4)nc3)C2(C)C)ccc1C#N", "note": "(stereo not shown) [Compound 362, 2-[8-[[4-[5-acetyl-3-[7-(difluoromethyl)-6-(1-methylpyrazol-4-yl)-3,4-dihydro-2H-quinolin-1-yl]-6,7-dihydro-4H-pyrazolo[4,3-c]pyridin-1-yl]-1-piperidyl]methyl]-5-azaspiro[2.5]octan-5-yl]-N-[3-(4-cyano-3-methoxy-phenoxy)-2,2,4,4-tetramethyl-cyclobutyl]pyrimidine-5-carboxamide]", "values": [{"measurement": "IC50", "setting": "[1]", "result": "≤ 0.1", "unit": "nM"}, {"measurement": "EC50", "setting": "[2]", "result": "< 1", "unit": "nM"}]}, {"smiles": "CC(=O)N1CCc2c(c(N3CCCc4cc(C#N)ccc43)nn2C2CCN(CC3CCN(c4ncc(C(=O)NC5C(C)(C)C(Oc6ccc(C#N)c(Cl)c6)C5(C)C)cn4)CC3)CC2)C1", "note": "(stereo not shown) [Compound 155, 2-[4-[[4-[5-acetyl-3-(6-cyano-3,4-dihydro-2H-quinolin-1-yl)-6,7-dihydro-4H-pyrazolo[4,3-c]pyridin-1-yl]-1-piperidyl]methyl]-1-piperidyl]-N-[3-(3-chloro-4-cyano-phenoxy)-2,2,4,4-tetramethyl-cyclobutyl]pyrimidine-5-carboxamide]", "values": [{"measurement": "IC50", "setting": "[1]", "result": "0.1 to 1", "unit": "nM"}, {"measurement": "EC50", "setting": "[2]", "result": "< 1", "unit": "nM"}]}, {"smiles": "CC(=O)N1CCc2c(c(N3CCCc4cc(-c5cnn(C)c5)c(C(F)F)cc43)nn2C2CCN(CC#CCCc3ncc(C(=O)NC4C(C)(C)C(Oc5ccc(C#N)c(Cl)c5)C4(C)C)cn3)CC2)C1", "note": "(stereo not shown) [Compound 18, 2-[5-[4-[5-acetyl-3-[7-(difluoromethyl)-6-(1-methylpyrazol-4-yl)-3,4-dihydro-2H-quinolin-1-yl]-6,7-dihydro-4H-pyrazolo[4,3-c]pyridin-1-yl]-1-piperidyl]pent-3-ynyl]-N-[3-(3-chloro-4-cyano-phenoxy)-2,2,4,4-tetramethyl-cyclobutyl]pyrimidine-5-carboxamide]", "values": [{"measurement": "IC50", "setting": "[1]", "result": "0.1 to 1", "unit": "nM"}, {"measurement": "EC50", "setting": "[2]", "result": "< 1", "unit": "nM"}]}, {"smiles": "COc1cc(OC2C(C)(C)C(NC(=O)c3ccc(N4CCC(CN5CCC(n6nc(N7CCCc8cc(-c9cnn(C)c9)c(C(F)F)cc87)c7c6CCN(C(C)=O)C7)CC5)C(OC)C4)cc3)C2(C)C)ccc1C#N", "note": "(stereo not shown) [Compound 332, 4-[4-[[4-[5-acetyl-3-[7-(difluoromethyl)-6-(1-methylpyrazol-4-yl)-3,4-dihydro-2H-quinolin-1-yl]-6,7-dihydro-4H-pyrazolo[4,3-c]pyridin-1-yl]-1-piperidyl]methyl]-3-methoxy-1-piperidyl]-N-[3-(4-cyano-3-methoxy-phenoxy)-2,2,4,4-tetramethyl-cyclobutyl]benzamide]", "values": [{"measurement": "IC50", "setting": "[1]", "result": "≤ 0.1", "unit": "nM"}, {"measurement": "EC50", "setting": "[2]", "result": "< 1", "unit": "nM"}]}, {"smiles": "COc1cc(OC2C(C)(C)C(NC(=O)c3ccc(N4CCC5(CC(N6CCC(n7nc(N8CCCc9cc(-c%10cnn(C)c%10)c(C(F)F)cc98)c8c7CCN(C(C)=O)C8)CC6)C5)C4)cc3)C2(C)C)ccc1C#N", "note": "(stereo not shown) [Compound 347, 4-[2-[4-[5-acetyl-3-[7-(difluoromethyl)-6-(1-methylpyrazol-4-yl)-3,4-dihydro-2H-quinolin-1-yl]-6,7-dihydro-4H-pyrazolo[4,3-c]pyridin-1-yl]-1-piperidyl]-6-azaspiro[3.4]octan-6-yl]-N-[3-(4-cyano-3-methoxy-phenoxy)-2,2,4,4-tetramethyl-cyclobutyl]benzamide]", "values": [{"measurement": "IC50", "setting": "[1]", "result": "≤ 0.1", "unit": "nM"}, {"measurement": "EC50", "setting": "[2]", "result": "< 1", "unit": "nM"}]}, {"smiles": "COc1cc(OC2C(C)(C)C(NC(=O)c3ccc(N4CC5(CCC(N6CCC(n7nc(N8CCCc9cc(-c%10ccn(C)n%10)c(C(F)F)cc98)c8c7CCN(C(C)=O)C8)CC6)CC5)C4)cc3)C2(C)C)ccc1C#N", "note": "(stereo not shown) [Compound 432, 4-[7-[4-[5-acetyl-3-[7-(difluoromethyl)-6-(1-methylpyrazol-3-yl)-3,4-dihydro-2H-quinolin-1-yl]-6,7-dihydro-4H-pyrazolo[4,3-c]pyridin-1-yl]-1-piperidyl]-2-azaspiro[3.5]nonan-2-yl]-N-[3-(4-cyano-3-methoxy-phenoxy)-2,2,4,4-tetramethyl-cyclobutyl]benzamide]", "values": [{"measurement": "IC50", "setting": "[1]", "result": "≤ 0.1", "unit": "nM"}, {"measurement": "EC50", "setting": "[2]", "result": "< 1", "unit": "nM"}]}, {"smiles": "CC(=O)N1CCc2c(c(N3CCCc4cc(-c5cnn(C)c5)c(C(F)F)cc43)nn2C2CCC(OC3CN(c4ncc(C(=O)NC5C(C)(C)C(Oc6ccc(C#N)c(Cl)c6)C5(C)C)cn4)C3)CC2)C1", "note": "(stereo not shown) [Compound 341]", "values": [{"measurement": "IC50", "setting": "[1]", "result": "0.1 to 1", "unit": "nM"}, {"measurement": "EC50", "setting": "[2]", "result": "< 1", "unit": "nM"}]}, {"smiles": "Cn1cc(-c2cc3cccc(-c4cc(C5=CCN(CC6CCN(c7ncc(C(=O)NC8C(C)(C)C(Oc9ccc(C#N)c(Cl)c9)C8(C)C)cn7)CC6)CC5)c5c(c4)n(C)c(=O)n5C)c3cn2)cn1", "note": "(stereo not shown) [Compound 243, N-[3-(3-chloro-4-cyano-phenoxy)-2,2,4,4-tetramethyl-cyclobutyl]-2-[4-[[4-[1,3-dimethyl-6-[3-(1-methylpyrazol-4-yl)-8-isoquinolyl]-2-oxo-benzimidazol-4-yl]-3,6-dihydro-2H-pyridin-1-yl]methyl]-1-piperidyl]pyrimidine-5-carboxamide]", "values": [{"measurement": "IC50", "setting": "[1]", "result": "0.1 to 1", "unit": "nM"}, {"measurement": "EC50", "setting": "[2]", "result": "> 100", "unit": "nM"}]}]}
